Reference: patent publication US9353067B2, “Heterocyclic compounds and uses thereof in the treatment of sexual disorders” (ATIR Holding S.A., priority 2011, dated 2016)
“And” between values parts separate entries of the source, which are not always exact repeats. Equal entries are not always repeated.

Legend:
CRF1 receptor = CRF1 receptor (Homo sapiens (Human), UniProt P34998); assay: Competitive binding, (Tyr0)-CRF radioligand
Method: R-55 (which comprises a 3-hydroxyphenyl moiety) and the structurally related compounds N-108 (2-{[4-(2-ethoxyphenyl)piperazin-1-yl]methyl}quinazolin-4(3H)-one) and B-39 (7-chloro-2-((5,6-dihydro-4-(2-methoxyphenyl)pyridin-1(2H)-yl)methyl)quinazolin-4(3H)-one) were assayed for competitive binding to a variety of receptors, including D4.4 type dopamine receptor, in order to assess their specificity for D4.4 dopamine receptors.
The receptors were expressed as human recombinant proteins in CHO cells, except for adrenergic α1 and α2 receptors which were expressed in Wistar rat brain and cerebral cortex cells, respectively, and melanocortin MC4 receptor which was expressed in human recombinant HEK-293 cells. Binding was determined using the following radioligands in the presence of various concentrations of the tested compound:
0.05 nM)(Tyr^0)-corticotropin releasing factor (CRF) for corticotropin releasing factor CRF1 receptor,
The binding assays were performed in accordance with procedures described in the literature (Greengrass & Bremner, 1979; Boyajian & Leslie, 1987; Broadhurst, 1988; Lewis, 2001; Sutton, 1995; Dearry, 1990; Zhou, 1990; Grandy, 1989; Hayes, 1992; Sokoloff, 1990; Van Tol, 1991; Van Tol 1992; Sunahara, 1991; Weinshank, 1991; Schioth, 1996; Schioth 1997; Martin & Humphrey, 1994; May, 2003; Wolf & Schutz, 1997).

[1] = target: D4.4 type dopamine receptor (Homo sapiens (Human), UniProt P21917); assay: Competitive binding to D4.4 receptor ([3H]-YM-09151-2); conditions: human recombinant receptor in CHO cells, [3H]-YM-09151-2 0.3 nM
Method: R-55 (which comprises a 3-hydroxyphenyl moiety) and its isomers L-221 (comprising a 4-hydroxyphenyl moiety) and L-238 (comprising a 2-hydroxyphenyl moiety) were assayed for competitive binding to D2 SHORT and D4.4 type dopamine receptors, in order to assess their efficacy for treating sexual disorders. Both receptor types are expressed as human recombinant proteins in CHO cells, as described, for example, in Jarvis et al. (1973); Van Tol et al. (1991) and Van Tol et al. (1992).
Determination of binding to D4.4 receptor was performed using [^3H]-YM-09151-2 (70-87 Ci/mmol, 0.3 nM), as a radioligand, in the presence of various concentrations of the tested compound. Reactions were carried out in 50 mM TRIS-HCl (pH 7.4) containing 5 mM MgCl2, 5 mM EDTA, 5 mM KCl and 1.5 mM CaCl2, for 60 minutes at 22° C. The reaction was terminated by rapid vacuum filtration onto glass fiber filters. Radioactivity trapped onto the filters was determined (counted) and compared to control values in order to accurately evaluate any interaction of the tested compound(s) with the cloned dopamine D4.4 binding site.

[2] = Solubility of R-55 in solvents for transdermal formulation; type: physicochemical
Method: To this effect, a stable oil-in-water emulsion was developed. Various solvents were tested in order to achieve an R-55 concentration of up to 20 mg/gram in the lipid phase of the emulsion, in order to achieve a total concentration of up to 10 mg/gram R-55.
The following organic solvents which are used in transdermal formulations were tested: […]

[3] = Transdermal administration of R-55 formulation to pigs, plasma R-55; type: in vivo, White Landrace female pigs
Method: R-55 and related compounds were assayed in the plasma samples using a Waters (USA) Alliance high performance liquid chromatograph coupled with a Waters Micromass ZQ quadruple mass spectrometer (in ESI+ mode) as a detector with Waters Empower chromatographic and mass spectrometric software for chromatographic data acquisition, processing and instrument control.
The tested compound was extracted from plasma using dichloromethane, followed by concentration by evaporating the extract and dissolution in a low volume chromatographic mobile phase.
The instrument was calibrated using plasma spiked with various concentrations of the tested compound. Enrofloxacin (m/z=360.4) was used as an internal standard.
In order to investigate the feasibility of transdermal administration of R-55, the presence of R-55 in plasma was measured following administration to pigs of the exemplary transdermal formulation described in Example 5.
White Landrace female pigs were acclimatized for 5 days prior to application of the formulation. 50 ml of the formulation (containing 500 mg R-55) was applied over a 15×7 cm area of the skin of each pig, in a single dose. In order to facilitate constant transdermal administration for at least 6 hours, a suitable plastic shield, attached by adhesive plaster, was used to cover the whole treated dermal surface area for six hours.
Clinical observations were performed during the six hours following application.
Blood samples were withdrawn from each pig via a jugular vein catheter at the following time points: immediately prior to application (t=0) and 15 minutes, 30 minutes, 45 minutes, 60 minutes, 90 minutes, 2 hours, 4 hours, and 6 hours post-application. All samples were collected in commercially available, EDTA supplemented test-tubes. Blood samples were stored on crushed ice after collection. Plasma was separated by centrifugation (10 minutes at 3000 rotations per minute), within one hour post-sampling. Each plasma sample was divided into two aliquots before freezing. Plasma samples were then stored at −20° C. until being dispatched for LCMS analysis.

Sequence of D4.4 type dopamine receptor (P21917 whole entry): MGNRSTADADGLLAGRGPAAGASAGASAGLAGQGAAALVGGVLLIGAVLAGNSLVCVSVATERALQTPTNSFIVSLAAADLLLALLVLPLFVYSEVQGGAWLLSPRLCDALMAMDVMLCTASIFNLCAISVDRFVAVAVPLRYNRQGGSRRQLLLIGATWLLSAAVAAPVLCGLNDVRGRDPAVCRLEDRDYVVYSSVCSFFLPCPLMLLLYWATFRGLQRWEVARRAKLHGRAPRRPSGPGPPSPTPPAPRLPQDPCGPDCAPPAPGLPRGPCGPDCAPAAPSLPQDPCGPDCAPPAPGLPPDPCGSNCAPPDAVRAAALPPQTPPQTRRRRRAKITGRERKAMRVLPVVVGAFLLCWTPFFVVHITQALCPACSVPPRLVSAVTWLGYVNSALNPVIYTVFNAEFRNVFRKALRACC
Sequence of CRF1 receptor (P34998 24-415): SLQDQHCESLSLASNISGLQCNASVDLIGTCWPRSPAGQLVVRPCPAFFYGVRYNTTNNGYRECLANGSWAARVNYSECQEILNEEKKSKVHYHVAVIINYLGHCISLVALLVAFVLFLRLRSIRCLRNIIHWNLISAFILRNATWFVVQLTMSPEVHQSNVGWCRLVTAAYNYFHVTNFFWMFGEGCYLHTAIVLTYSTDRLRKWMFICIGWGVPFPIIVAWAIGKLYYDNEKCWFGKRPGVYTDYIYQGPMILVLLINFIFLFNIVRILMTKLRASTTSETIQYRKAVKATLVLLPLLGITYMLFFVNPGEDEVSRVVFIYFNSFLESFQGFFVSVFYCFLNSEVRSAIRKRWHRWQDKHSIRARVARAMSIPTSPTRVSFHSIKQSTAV

## O=c1[nH]c(CN2CCN(c3cccc(O)c3)CC2)nc2ccccc12 [Compound R-55, 2-((4-(3-hydroxyphenyl)piperazin-1-yl)methyl)quinazolin-4-one]
CRF1 receptor
  Competitive binding (%) at 5 μM of tested compound: 3%
[1]
  IC50: 500 nM
[2]; propylene glycol (PG)
  solubility of R-55 in propylene glycol: less than 5 mg/gram
[2]; weight ratio of 4:1 PG:PC
  solubility of R-55 in propylene glycol with phosphatidyl choline: 8 mg/gram
[3]; female, White Landrace, pig, plasma, topical, 500 mg, transdermal 500 mg R-55 (50 ml formulation), 0 minutes (immediately prior to application), individual animals #1-#4
  concentration at 0 min: 0 ng/mL
[3]; female, White Landrace, pig, plasma, topical, 500 mg, transdermal 500 mg R-55, 30 minutes after application, individual animals #1-#4
  concentration at 30 min: 16.7 ng/mL
[3]; female, White Landrace, pig, plasma, topical, 500 mg, transdermal 500 mg R-55, 4 hours after application, individual animals #1-#4
  concentration at 4 h: 0 ng/mL
[3]; female, White Landrace, pig, plasma, topical, 500 mg, transdermal 500 mg R-55, 6 hours after application, individual animals #1-#4
  concentration at 6 h: 0 ng/mL
[3]; transdermal 500 mg R-55 (50 ml formulation), 0 minutes (immediately prior to application), individual animals #1-#4
  R-55 concentration (plasma): 0 ng/mL
[3]; transdermal 500 mg R-55, 15 minutes after application, individual animals #1-#4
  R-55 concentration (plasma): 0 ng/ml (3×) and 10.8 ng/ml
[3]; transdermal 500 mg R-55, 30 minutes after application, individual animals #1-#4
  R-55 concentration (plasma): 19.9 ng/mL and 11.8 ng/mL and 15.2 ng/mL
[3]; transdermal 500 mg R-55, 45 minutes after application, individual animals #1-#4
  R-55 concentration (plasma): 0 ng/ml (3×) and 10.5 ng/ml
[3]; transdermal 500 mg R-55, 60 minutes after application, individual animals #1-#4
  R-55 concentration (plasma): 10.3 ng/ml and 0 ng/ml (2×) and 10.7 ng/ml
[3]; transdermal 500 mg R-55, 90 minutes after application, individual animals #1-#4
  R-55 concentration (plasma): 16.8 ng/ml and 0 ng/ml (2×) and 10.1 ng/ml
[3]; transdermal 500 mg R-55, 2 hours after application, individual animals #1-#4
  R-55 concentration (plasma): 14.8 ng/mL and 11.8 ng/mL and 0 ng/mL and 10.7 ng/mL
[3]; transdermal 500 mg R-55, 4 hours after application, individual animals #1-#4
  R-55 concentration (plasma): 0 ng/mL
[3]; transdermal 500 mg R-55, 6 hours after application, individual animals #1-#4
  R-55 concentration (plasma): 0 ng/mL
[3]; transdermal 500 mg R-55, six hours following application
  Clinical observations: No clinical abnormalities were observed
[3]; transdermal administration
  duration of relatively stable concentration of R-55 in plasma after administration: at least 2 hours
